Results: patent US8722649B2, “Alpha-chloro and alpha-bromo phosphonate analogs of lysophosphatidic acid and methods of making and using thereof” (University of Utah Research Foundation, priority 2007, dated 2014)

System: MDA-MB-231 cells
Assay: Orthotopic breast cancer xenograft
Type: in vivo, nude mice
Description: Orthotopic Human Breast Cancer Models. 4-week-old female athymic nude mice (Charles River Laboratories) were anesthetized by intraperitoneal injection of ketamine (80 mg/kg) and xylazine (10 mg/kg),according to the protocol approved by the University of Utah Institutional Animal Care and Use Committee (IACUC). Then the thoracic skin was sterilized with iodine and alcohol swabs.
MDA-MB-231 were trypsinized and resuspended in 2.5% CMHA-S and 3% gelatin-DTPH (v:v=1:1). Then, one volume of 4% PEGDA solution was added to four volumes of the cell suspension, and the resulting suspension was mixed gently by vortexing. The final cell concentration was 5×10^7 cells/ml. When the cell suspension was becoming viscous (ca. 3-5 min at 20° C.), 200 uL of gel was injected subcutaneously into the fourth mammary fat pad of each mouse, using a total of six mice per group.
The assessment of chemotherapy on breast cancer. The mice were randomly divided into 4 groups, including control (physiological saline), paclitaxel, LPA antagonist (19b), and paclitaxel followed by 19b. Six mice for each cell line were necessary to get statistically significant results according to literature. The control group received physiological saline i.p. injection twice per week starting at two weeks after the cell transplantation and ending at two weeks after the treatment. The treatment groups received i.p. administration of paclitaxel (10 mg/kg/day) or 19b (10 mg/kg/day) twice per week with the same period of control group. One additional group included 2 dose of paclitaxel followed by 2 dose of 19b with the same period of control group. The treatment was received […] twice per week for 2 weeks total.
The body weight and tumor size were measured twice per week, and general clinical status of the animals was also assessed every day. Perpendicular tumor diameters were measured using a vernier scale caliper and tumor volume estimated using the formula for ellipsoid: […] (mm^3)=[width(mm)^2×length(mm)]/2. Data are expressed as median tumor areas with interquartile ranges.
Animals were euthanized at 4 weeks postinjection or once any signs of broken skin caused by the extension of tumor are found. Tumors were excised with surrounding tissues for histological evaluation. Analysis of variance was used to analyze the statistical difference on tumor growth between different groups. The results are in FIG. 8, where it is shown that the volume of the tumors is the lowest when mice were treated with paclitaxel followed by the administration of 19b.
Xenograft establishment and chemotherapy. […] The tumor sizes were measured and calculated by formula: tumor size (mm^3)=[width (mm)]^2×[length (mm)]/2. […]

Structure (SMILES): CC(=O)O[C@H]1C(=O)[C@@]2(C)[C@H]([C@H](OC(=O)c3ccccc3)[C@]3(O)C[C@H](OC(=O)[C@H](O)[C@@H](NC(=O)c4ccccc4)c4ccccc4)C(C)=C1C3(C)C)[C@]1(OC(C)=O)CO[C@@H]1C[C@@H]2O [Taxol, reference compound]
- tumor blood vessel density / angiogenesis (CD31), single agent (10 mg/kg i.p.): statistically different from the control
- tumor size, single agent (10 mg/kg i.p. twice per week for two weeks): reduction of tumor size
